Measured values reported in ChEMBL document CHEMBL1201862, “PubChem BioAssay data set” (2004).
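Values below derive from 48-hour exposures of cells grown in 96-well plates, with endpoints linearly interpolated between the two concentrations bracketing the appropriate inhibition level. At the GI50, growth is halved.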 The source made the active and inactive calls. Rule as the data show it: active = GI50 up to about 1.1 µM and inactive = higher.

Experiments:
Assay in all cases: NCI-60 cell line screen, 48 h
UACC-62 = test system: UACC-62
MDA-N = test system: MDA-N
KM12 = test system: KM12
SF-539 = test system: SF-539
MDA-MB-435 = test system: MDA-MB-435
MDA-MB-231 = test system: MDA-MB-231
786-0 = test system: 786-0
SNB-75 = test system: SNB-75
SF-295 = test system: SF-295
SK-MEL-28 = test system: SK-MEL-28
M14 = test system: M14
OVCAR-8 = test system: OVCAR-8
MOLT-4 = test system: MOLT-4
U-251 = test system: U-251
NCI/ADR-RES = test system: NCI/ADR-RES
OVCAR-3 = test system: OVCAR-3
SK-MEL-5 = test system: SK-MEL-5
RXF 393 = test system: RXF 393
Hs-578T = test system: Hs-578T
EKVX = test system: EKVX

Measured: GI50

O=C1c2nc3n(c2C(=O)c2c1nc1n2CCC1)CCC3
inactive: UACC-62 1.85 µM | MDA-N 1.77 µM | KM12 4.41 µM | SF-539 3.64 µM | MDA-MB-435 2.02 µM | MDA-MB-231 > 10 µM | 786-0 5.25 µM | SNB-75 15.2 µM | SF-295 5.37 µM | SK-MEL-28 13.3 µM | M14 1.76 µM | OVCAR-8 5.46 µM | MOLT-4 5.46 µM | U-251 6.79 µM | NCI/ADR-RES > 10 µM | OVCAR-3 2.71 µM | SK-MEL-5 1.44 µM | RXF 393 2.74 µM | Hs-578T > 10 µM | EKVX 15.6 µM

O=C(O)CSc1ncccc1[N+](=O)[O-]
inactive: UACC-62 > 100 µM | MDA-N > 100 µM | KM12 > 100 µM | SF-539 > 100 µM | MDA-MB-435 > 100 µM | MDA-MB-231 > 100 µM | 786-0 > 100 µM | SNB-75 > 100 µM | SF-295 > 100 µM | SK-MEL-28 > 100 µM | M14 > 100 µM | OVCAR-8 > 100 µM | MOLT-4 > 100 µM | U-251 > 100 µM | NCI/ADR-RES > 100 µM | OVCAR-3 > 100 µM | SK-MEL-5 > 100 µM | RXF 393 > 100 µM | Hs-578T > 100 µM | EKVX > 100 µM

CC1SCCc2nc3ccccc3n21 (stereo not given)
inactive: UACC-62 > 100 µM | MDA-N > 100 µM | KM12 > 100 µM | SF-539 > 100 µM | MDA-MB-435 > 100 µM | MDA-MB-231 > 100 µM | 786-0 > 100 µM | SNB-75 > 100 µM | SF-295 > 100 µM | SK-MEL-28 > 100 µM | M14 > 100 µM | OVCAR-8 > 100 µM | MOLT-4 > 100 µM | U-251 > 100 µM | NCI/ADR-RES > 100 µM | OVCAR-3 > 100 µM | SK-MEL-5 > 100 µM | RXF 393 > 100 µM | Hs-578T > 100 µM | EKVX > 100 µM

O=C(O)CC(CC(=O)O)C(=O)O [TRICARBALLYLIC ACID]
inactive: UACC-62 > 100 µM | MDA-N > 100 µM | KM12 > 100 µM | SF-539 > 100 µM | MDA-MB-435 > 100 µM | MDA-MB-231 > 100 µM | 786-0 > 100 µM | SNB-75 > 100 µM | SF-295 > 100 µM | SK-MEL-28 > 100 µM | M14 > 100 µM | OVCAR-8 > 100 µM | MOLT-4 > 100 µM | U-251 > 100 µM | NCI/ADR-RES > 100 µM | OVCAR-3 > 100 µM | SK-MEL-5 > 100 µM | RXF 393 > 100 µM | Hs-578T > 100 µM | EKVX > 100 µM
